{
  "source": "paper PMC7687371",
  "about": "“Quantitative in Vitro to in Vivo Extrapolation (QIVIVE) for Predicting Reduced Anogenital Distance Produced by Anti-Androgenic Pesticides in a Rodent Model for Male Reproductive Disorders” (Environmental Health Perspectives, 2020)",
  "key": {"NCI-H295R cells [1]": {"tested_on": "NCI-H295R cells", "assay": "H295R steroidogenesis assay", "format": "cell-based, human", "method": "To capture effects on steroid hormone synthesis (testosterone and androstendione), we tested all 12 pesticides in the H295R assay with the human adrenocortical carcinoma cell line NCI-H295R (American Type Culture Collection no. CRL-2,128, LGC Standards), as previously described ([Hecker et al. 2011]; [Rosenmai et al. 2013]). In brief, cells were cultured in DMEM/F-12 +glutamine medium with HEPES buffer (Invitrogen) containing 1% insulin-transferrin-sodium selenite plus Premix (VWR) and 2.5% Nu-Serum (BD Bioscience) at 37°C in a 5% CO2 atmosphere. The day before exposure, cells were seeded 300,000 per well in clear 24-well plates (VWR Corning). Cells were exposed for 48 h to control (Forskolin: 1μM , 10μM (Sigma-Aldrich); and Prochloraz: 0.3μM , 3μM (VWR-Bie and Berntsen) or test compounds. The vehicle (DMSO) concentration was kept constant in all wells (0.1%). After 48 h, the exposure culture medium was removed and stored at –80°C until the levels of 10 steroid hormones (testosterone, androstenedione, aldosterone, corticosterone, cortisol, dehydroepiandrosterone, 17α-hydroxyprogesterone , progesterone, estrone, and 17β-estradiol ) were quantified using the high-performance liquid chromatography–tandem mass spectrometry method described elsewhere ([Mortensen and Pedersen 2007]). Minor modifications were made to accommodate a smaller sample size and to include more hormones. The liquid chromatography system (Agilent 1100) was equipped with an Atlantis C18 column ( 2.1×150mm , 3μm ) (Waters Corp.) maintained at 40°C. The sample injection volume was 50μL . […] The mass spectrometer was a Quattro Ultima triple quadrupole instrument (Waters Corp.). […] Each pesticide was tested in 2-fold serial dilutions at concentrations between 0.8 and 50μM in three independent experiments, and hormone levels were normalized to the solvent controls containing 0.1% DMSO. Cell viability was evaluated by using the 3-(4,5-dimethylthiazol-2-yl)-2,5- diphenyltetrazolium bromide (MTT) assay (Sigma) as previously described ([Hecker et al. 2011]; [Rosenmai et al. 2013]). Fluorescence was measured (excitation 560 nm , emission 590 nm ) using a Wallac Victor2 1420 multilabel counter (PerkinElmer)."}, "NCI-H295R cells [2]": {"tested_on": "NCI-H295R cells", "assay": "Cell viability (MTT) in the H295R assay", "format": "cell-based, human", "method": "To capture effects on steroid hormone synthesis (testosterone and androstendione), we tested all 12 pesticides in the H295R assay with the human adrenocortical carcinoma cell line NCI-H295R (American Type Culture Collection no. CRL-2,128, LGC Standards), as previously described ([Hecker et al. 2011]; [Rosenmai et al. 2013]). In brief, cells were cultured in DMEM/F-12 +glutamine medium with HEPES buffer (Invitrogen) containing 1% insulin-transferrin-sodium selenite plus Premix (VWR) and 2.5% Nu-Serum (BD Bioscience) at 37°C in a 5% CO2 atmosphere. The day before exposure, cells were seeded 300,000 per well in clear 24-well plates (VWR Corning). Cells were exposed for 48 h to control (Forskolin: 1μM , 10μM (Sigma-Aldrich); and Prochloraz: 0.3μM , 3μM (VWR-Bie and Berntsen) or test compounds. The vehicle (DMSO) concentration was kept constant in all wells (0.1%). After 48 h, the exposure culture medium was removed and stored at –80°C until the levels of 10 steroid hormones (testosterone, androstenedione, aldosterone, corticosterone, cortisol, dehydroepiandrosterone, 17α-hydroxyprogesterone , progesterone, estrone, and 17β-estradiol ) were quantified using the high-performance liquid chromatography–tandem mass spectrometry method described elsewhere ([Mortensen and Pedersen 2007]). Minor modifications were made to accommodate a smaller sample size and to include more hormones. […]"}, "[3]": {"assay": "PBK model first-order kinetic parameters fitted to in vivo ADME data", "design": "species or system rat", "settings": "PBK model parameter"}, "[4]": {"design": "method as in U.S. EPA 2012", "settings": "EPI Suite, experimental preferred over modeled; ref U.S. EPA 2012; cited from earlier work"}, "[5]": {"settings": "ref Wetmore et al. (2012); cited from earlier work"}, "pregnant dams and pups": {"tested_on": "pregnant dams and pups", "settings": "ref EFSA's Draft Assessment Reports (DARs); cited from earlier work"}},
  "note": "Marks after values point to notes of the source that are not given here.",
  "data": [
    {"smiles": "Fc1ccc(Oc2ccnc3cc(Cl)cc(Cl)c23)cc1", "note": "[Quinoxyfen, quinoxyphen]", "values": [
      {"measurement": "Effect on androgen (steroid) synthesis, in words", "setting": "NCI-H295R cells [1]; H295R steroidogenesis assay", "value": "inhibited testosterone synthesis"},
      {"measurement": "IC20", "setting": "NCI-H295R cells [1]; Homo sapiens, NCI-H295R, read-out: Testosterone inhibition (IC20 µM)", "value": 1, "unit": "µM"},
      {"measurement": "Androstendione, LOEC", "setting": "NCI-H295R cells [1]; multiple contrast tests", "value": 1.6, "unit": "µM"},
      {"measurement": "Corticosterone, LOEC", "setting": "NCI-H295R cells [1]; multiple contrast tests", "value": 3.1, "unit": "µM"},
      {"measurement": "DHEA, LOEC", "setting": "NCI-H295R cells [1]; multiple contrast tests", "value": 1.6, "unit": "µM"},
      {"measurement": "Estradiol, LOEC", "setting": "NCI-H295R cells [1]; multiple contrast tests", "value": 25, "unit": "µM"},
      {"measurement": "Progesterone, LOEC", "setting": "NCI-H295R cells [1]; multiple contrast tests", "value": 50, "unit": "µM"},
      {"measurement": "Testosterone, lowest observed effect concentration (LOEC)", "setting": "NCI-H295R cells [1]; multiple contrast tests", "value": 1.6, "unit": "µM"},
      {"measurement": "Cytotoxicity in H295R assay, concentrations", "setting": "NCI-H295R cells [2]", "value": "cytotoxicity was observed at the same concentrations"},
      {"measurement": "Biliary excretion rate (L/h) KBiliary", "setting": "[3]", "value": 1.4, "unit": "L/h"},
      {"measurement": "Fecal excretion rate from gut (L/h) KFeces", "setting": "[3]", "value": 2, "unit": "L/h"},
      {"measurement": "Portal GI absorption rate into liver (L/h) KAS", "setting": "[3]", "value": 1, "unit": "L/h"},
      {"measurement": "Urine excretion rate from kidney (L/h) KUrine", "setting": "[3]", "value": 0.01, "unit": "L/h"},
      {"measurement": "Metabolism rate in liver, Total (L/h) KMetab", "setting": "[3]; metabolic clearance", "value": 0.3, "unit": "L/h"},
      {"measurement": "log Kow", "setting": "[4]", "value": 4.66},
      {"measurement": "Unbound plasma fraction (%)", "setting": "[5]", "value": "5.0^g %"},
      {"measurement": "Critical toxicity", "setting": "pregnant dams and pups", "value": "Reduced pup BW during lactation, liver hypertrophy"},
      {"measurement": "LOAEL (mg/kg bw)", "setting": "pregnant dams and pups", "value": 100, "unit": "mg/kg bw"},
      {"measurement": "NOAEL (mg/kg bw)", "setting": "pregnant dams and pups", "value": 25, "unit": "mg/kg bw"}
    ]}
  ]
}
